Species on record: Rattus norvegicus
Test: DrugMatrix - Regimen: Daily Repeat
Format: toxicity, organism-based, Sprague-Dawley
Set-up: regimen Daily Repeat, gender Male, age 6-8 weeks
Conditions: in vivo, po, route oral GAVAGE, […]; for ABSOLUTE BASOPHIL / ABSOLUTE EOSINOPHIL / ABSOLUTE LYMPHOCYTE / ABSOLUTE MONOCYTE / ABSOLUTE SEGMENTED NEUTROPHIL / BASOPHIL / EOSINOPHIL / ERYTHROCYTE COUNT / HEMATOCRIT / HEMOGLOBIN / LEUKOCYTE COUNT / LYMPHOCYTE / MEAN CORPUSCULAR HEMOGLOBIN / MEAN CORPUSCULAR HEMOGLOBIN CONCENTRATION / MEAN CORPUSCULAR VOLUME / MONOCYTE / NEUTROPHIL / NUCLEATED RED BLOOD CELLS / PLATELET COUNT: tissue Blood; for ALANINE AMINOTRANSFERASE / ALBUMIN / ALKALINE PHOSPHATASE / ASPARTATE AMINOTRANSFERASE / BLOOD UREA NITROGEN / CARBON DIOXIDE / CHLORIDE / CHOLESTEROL / CREATINE PHOSPHOKINASE / CREATININE / GLUCOSE / LACTATE DEHYDROGENASE / LIPASE / PHOSPHORUS / POTASSIUM / SODIUM / TOTAL BILIRUBIN / TOTAL PROTEIN / URIC ACID: tissue Plasma
[1] = 0 mg/kg, 72 h, dose level Control, time 3 day
[2] = 0 mg/kg, 120 h, dose level Control, time 5 day
[3] = 59 mg/kg, 72 h, dose level Low, time 3 day
[4] = 59 mg/kg, 120 h, dose level Low, time 5 day

## Oc1c(Cl)cc(Cl)cc1Sc1cc(Cl)cc(Cl)c1O [BITHIONOL]
[1]
  ABSOLUTE BASOPHIL: 0 CELLS/uL
  ABSOLUTE EOSINOPHIL: 33 CELLS/uL
  ABSOLUTE LYMPHOCYTE: 9048.5 CELLS/uL
  ABSOLUTE MONOCYTE: 80.17 CELLS/uL
  ABSOLUTE SEGMENTED NEUTROPHIL: 1521.67 CELLS/uL
  BASOPHIL: 0%
  EOSINOPHIL: 0.17%
  ERYTHROCYTE COUNT: 5.46 x10E6/uL
  HEMATOCRIT: 32.87%
  HEMOGLOBIN: 12.95 G/DL
  LEUKOCYTE COUNT: 10.68 x10E3/uL
  LYMPHOCYTE: 86.67%
  MEAN CORPUSCULAR HEMOGLOBIN: 23.72 pg
  MEAN CORPUSCULAR HEMOGLOBIN CONCENTRATION: 39.4 G/DL
  MEAN CORPUSCULAR VOLUME: 60.18 fL
  MONOCYTE: 0.83%
  NEUTROPHIL: 12.33%
  NUCLEATED RED BLOOD CELLS: 0 /100WBC
  PLATELET COUNT: 1211.33 x10E3/uL
  ALANINE AMINOTRANSFERASE: 76.67 u/L
  ALBUMIN: 3.93 G/DL
  ALKALINE PHOSPHATASE: 317.17 u/L
  ASPARTATE AMINOTRANSFERASE: 81.17 u/L
  BLOOD UREA NITROGEN: 12.33 mg/dL
  CARBON DIOXIDE: 31.17 mmol/L
  CHLORIDE: 98.33 MEQ/L
  CHOLESTEROL: 67.17 mg/dL
  CREATINE PHOSPHOKINASE: 312.33 u/L
  CREATININE: 0.19 mg/dL
  GLUCOSE: 165.5 mg/dL
  LACTATE DEHYDROGENASE: 94.5 u/L
  LIPASE: 9.83 u/L
  PHOSPHORUS: 10.1 mg/dL
  POTASSIUM: 5.16 MEQ/L
  SODIUM: 143.02 MEQ/L
  TOTAL BILIRUBIN: 0.2 mg/dL
  TOTAL PROTEIN: 5.88 G/DL
  URIC ACID: 0.68 mg/dL
[2]
  ABSOLUTE BASOPHIL: 0 CELLS/uL
  ABSOLUTE EOSINOPHIL: 14.67 CELLS/uL
  ABSOLUTE LYMPHOCYTE: 9629.83 CELLS/uL
  ABSOLUTE MONOCYTE: 72.5 CELLS/uL
  ABSOLUTE SEGMENTED NEUTROPHIL: 1049.67 CELLS/uL
  BASOPHIL: 0%
  EOSINOPHIL: 0.17%
  ERYTHROCYTE COUNT: 5.36 x10E6/uL
  HEMATOCRIT: 33.82%
  HEMOGLOBIN: 13.48 G/DL
  LEUKOCYTE COUNT: 10.77 x10E3/uL
  LYMPHOCYTE: 90.17%
  MEAN CORPUSCULAR HEMOGLOBIN: 25.28 pg
  MEAN CORPUSCULAR HEMOGLOBIN CONCENTRATION: 39.92 G/DL
  MEAN CORPUSCULAR VOLUME: 63.3 fL
  MONOCYTE: 0.67%
  NEUTROPHIL: 9%
  NUCLEATED RED BLOOD CELLS: 0.17 /100WBC
  PLATELET COUNT: 1275.33 x10E3/uL
  ALANINE AMINOTRANSFERASE: 93.67 u/L
  ALBUMIN: 4.17 G/DL
  ALKALINE PHOSPHATASE: 402.5 u/L
  ASPARTATE AMINOTRANSFERASE: 122.83 u/L
  BLOOD UREA NITROGEN: 14.75 mg/dL
  CARBON DIOXIDE: 26.4 mmol/L
  CHLORIDE: 98.5 MEQ/L
  CHOLESTEROL: 57.5 mg/dL
  CREATINE PHOSPHOKINASE: 305.17 u/L
  CREATININE: 0.21 mg/dL
  GLUCOSE: 142 mg/dL
  LACTATE DEHYDROGENASE: 83.5 u/L
  LIPASE: 85.83 u/L
  PHOSPHORUS: 8.18 mg/dL
  POTASSIUM: 5.46 MEQ/L
  SODIUM: 144 MEQ/L
  TOTAL BILIRUBIN: 0.25 mg/dL
  TOTAL PROTEIN: 5.63 G/DL
  URIC ACID: 0.8 mg/dL
[3]
  ABSOLUTE BASOPHIL: 0 CELLS/uL
  ABSOLUTE EOSINOPHIL: 0 CELLS/uL
  ABSOLUTE LYMPHOCYTE: 6654 CELLS/uL
  ABSOLUTE MONOCYTE: 41.33 CELLS/uL
  ABSOLUTE SEGMENTED NEUTROPHIL: 671.33 CELLS/uL
  BASOPHIL: 0%
  EOSINOPHIL: 0%
  ERYTHROCYTE COUNT: 5.26 x10E6/uL
  HEMATOCRIT: 32.77%
  HEMOGLOBIN: 12.93 G/DL
  LEUKOCYTE COUNT: 7.37 x10E3/uL
  LYMPHOCYTE: 90%
  MEAN CORPUSCULAR HEMOGLOBIN: 24.57 pg
  MEAN CORPUSCULAR HEMOGLOBIN CONCENTRATION: 39.5 G/DL
  MEAN CORPUSCULAR VOLUME: 62.3 fL
  MONOCYTE: 0.67%
  NEUTROPHIL: 9.33%
  NUCLEATED RED BLOOD CELLS: 0 /100WBC
  PLATELET COUNT: 1231 x10E3/uL
  ALANINE AMINOTRANSFERASE: 78.67 u/L
  ALBUMIN: 4.07 G/DL
  ALKALINE PHOSPHATASE: 362 u/L
  ASPARTATE AMINOTRANSFERASE: 89.33 u/L
  BLOOD UREA NITROGEN: 13.67 mg/dL
  CARBON DIOXIDE: 31.67 mmol/L
  CHLORIDE: 98.67 MEQ/L
  CHOLESTEROL: 74.33 mg/dL
  CREATINE PHOSPHOKINASE: 365.67 u/L
  CREATININE: 0.18 mg/dL
  GLUCOSE: 157.67 mg/dL
  LACTATE DEHYDROGENASE: 123.67 u/L
  LIPASE: 10 u/L
  PHOSPHORUS: 11.23 mg/dL
  POTASSIUM: 6.04 MEQ/L
  SODIUM: 142.9 MEQ/L
  TOTAL BILIRUBIN: 0.17 mg/dL
  TOTAL PROTEIN: 5.97 G/DL
  URIC ACID: 0.6 mg/dL
[4]
  ABSOLUTE BASOPHIL: 0 CELLS/uL
  ABSOLUTE EOSINOPHIL: 30 CELLS/uL
  ABSOLUTE LYMPHOCYTE: 8041.67 CELLS/uL
  ABSOLUTE MONOCYTE: 31.33 CELLS/uL
  ABSOLUTE SEGMENTED NEUTROPHIL: 663.67 CELLS/uL
  BASOPHIL: 0%
  EOSINOPHIL: 0.33%
  ERYTHROCYTE COUNT: 5.55 x10E6/uL
  HEMATOCRIT: 33.6%
  HEMOGLOBIN: 13.2 G/DL
  LEUKOCYTE COUNT: 8.77 x10E3/uL
  LYMPHOCYTE: 91.67%
  MEAN CORPUSCULAR HEMOGLOBIN: 23.8 pg
  MEAN CORPUSCULAR HEMOGLOBIN CONCENTRATION: 39.27 G/DL
  MEAN CORPUSCULAR VOLUME: 60.53 fL
  MONOCYTE: 0.33%
  NEUTROPHIL: 7.67%
  NUCLEATED RED BLOOD CELLS: 0 /100WBC
  PLATELET COUNT: 933.33 x10E3/uL
  ALANINE AMINOTRANSFERASE: 82.33 u/L
  ALBUMIN: 4.23 G/DL
  ALKALINE PHOSPHATASE: 343.33 u/L
  ASPARTATE AMINOTRANSFERASE: 99.67 u/L
  BLOOD UREA NITROGEN: 14.67 mg/dL
  CARBON DIOXIDE: 27.67 mmol/L
  CHLORIDE: 102.33 MEQ/L
  CHOLESTEROL: 55.67 mg/dL
  CREATINE PHOSPHOKINASE: 348 u/L
  CREATININE: 0.19 mg/dL
  GLUCOSE: 150.67 mg/dL
  LACTATE DEHYDROGENASE: 104.67 u/L
  LIPASE: 19 u/L
  PHOSPHORUS: 9.53 mg/dL
  POTASSIUM: 5.41 MEQ/L
  SODIUM: 145.97 MEQ/L
  TOTAL BILIRUBIN: 0.23 mg/dL
  TOTAL PROTEIN: 5.97 G/DL
  URIC ACID: 0.9 mg/dL
